In ChEMBL document CHEMBL1201862, “PubChem BioAssay data set” (2004):
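Cells were grown in 96-well plates and exposed to each compound for 48 hours at five concentrations; endpoints were interpolated linearly between bracketing concentrations, or set to the highest concentration if not reached. GI50 = concentration required for 50% inhibition of growth.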 The source made the active and inactive calls. No stated cut-off is given here; in the data, active = GI50 up to about 1.1 µM and inactive = higher.

Assays:
Test in all cases: growth of human tumour cells (NCI), 48 h
SK-MEL-2 = system: SK-MEL-2
NCI-H23 = system: NCI-H23
HCT-15 = system: HCT-15
OVCAR-3 = system: OVCAR-3
MDA-MB-435 = system: MDA-MB-435
IGROV-1 = system: IGROV-1
SF-295 = system: SF-295
SR = system: SR
HCT-116 = system: HCT-116
SK-MEL-28 = system: SK-MEL-28
NCI-H460 = system: NCI-H460
RXF 393 = system: RXF 393
HOP-62 = system: HOP-62
SW-620 = system: SW-620
NCI-H226 = system: NCI-H226
SF-539 = system: SF-539
A549 = system: A549
UACC-62 = system: UACC-62
ACHN = system: ACHN
HOP-92 = system: HOP-92
PC-3 = system: PC-3
TK-10 = system: TK-10
Malme-3M = system: Malme-3M
SF-268 = system: SF-268
BT-549 = system: BT-549
MCF7 = system: MCF7
SK-MEL-5 = system: SK-MEL-5
SNB-19 = system: SNB-19
CAKI-1 = system: CAKI-1
HCC 2998 = system: HCC 2998
COLO 205 = system: COLO 205
DU-145 = system: DU-145
SNB-75 = system: SNB-75
EKVX = system: EKVX
Hs-578T = system: Hs-578T
U-251 = system: U-251
NCI/ADR-RES = system: NCI/ADR-RES
NCI-H522 = system: NCI-H522
SK-OV-3 = system: SK-OV-3
HT-29 = system: HT-29
HL-60 = system: HL-60
A498 = system: A498
LOX IMVI = system: LOX IMVI
OVCAR-5 = system: OVCAR-5
786-0 = system: 786-0
SN12C = system: SN12C
OVCAR-8 = system: OVCAR-8
CCRF-CEM = system: CCRF-CEM
K562 = system: K562
OVCAR-4 = system: OVCAR-4
UO-31 = system: UO-31
UACC-257 = system: UACC-257
MOLT-4 = system: MOLT-4
RPMI-8226 = system: RPMI-8226
KM12 = system: KM12
MDA-N = system: MDA-N
T47D = system: T47D
MDA-MB-231 = system: MDA-MB-231

Structure (SMILES): N#Cc1[nH]c(=S)[nH]c1N
- GI50 (SK-MEL-2): > 100 µM (inactive)
- GI50 (NCI-H23): > 100 µM (inactive)
- GI50 (HCT-15): > 100 µM
- GI50 (OVCAR-3): > 100 µM (inactive)
- GI50 (MDA-MB-435): > 100 µM (inactive)
- GI50 (IGROV-1): > 100 µM (inactive)
- GI50 (SF-295): > 100 µM (inactive)
- GI50 (SR): > 100 µM (inactive)
- GI50 (HCT-116): > 100 µM (inactive)
- GI50 (SK-MEL-28): > 100 µM (inactive)
- GI50 (NCI-H460): > 100 µM (inactive)
- GI50 (RXF 393): > 100 µM (inactive)
- GI50 (HOP-62): > 100 µM (inactive)
- GI50 (SW-620): > 100 µM (inactive)
- GI50 (NCI-H226): > 100 µM (inactive)
- GI50 (SF-539): > 100 µM (inactive)
- GI50 (A549): > 100 µM (inactive)
- GI50 (UACC-62): > 100 µM (inactive)
- GI50 (ACHN): > 100 µM (inactive)
- GI50 (HOP-92): > 100 µM (inactive)
- GI50 (PC-3): > 100 µM (inactive)
- GI50 (TK-10): > 100 µM (inactive)
- GI50 (Malme-3M): > 100 µM (inactive)
- GI50 (SF-268): > 100 µM (inactive)
- GI50 (BT-549): > 100 µM (inactive)
- GI50 (MCF7): > 100 µM (inactive)
- GI50 (SK-MEL-5): > 100 µM (inactive)
- GI50 (SNB-19): > 100 µM (inactive)
- GI50 (CAKI-1): > 100 µM (inactive)
- GI50 (HCC 2998): > 100 µM (inactive)
- GI50 (COLO 205): > 100 µM (inactive)
- GI50 (DU-145): > 100 µM (inactive)
- GI50 (SNB-75): > 100 µM (inactive)
- GI50 (EKVX): > 100 µM (inactive)
- GI50 (Hs-578T): 2.99 µM (inactive)
- GI50 (U-251): > 100 µM (inactive)
- GI50 (NCI/ADR-RES): > 100 µM (inactive)
- GI50 (NCI-H522): > 100 µM (inactive)
- GI50 (SK-OV-3): > 100 µM (inactive)
- GI50 (HT-29): > 100 µM (inactive)
- GI50 (HL-60): > 100 µM (inactive)
- GI50 (A498): > 100 µM (inactive)
- GI50 (LOX IMVI): > 100 µM (inactive)
- GI50 (OVCAR-5): > 100 µM (inactive)
- GI50 (786-0): > 100 µM (inactive)
- GI50 (SN12C): > 100 µM (inactive)
- GI50 (OVCAR-8): > 100 µM (inactive)
- GI50 (CCRF-CEM): > 100 µM (inactive)
- GI50 (K562): > 100 µM (inactive)
- GI50 (OVCAR-4): > 100 µM (inactive)
- GI50 (UO-31): > 100 µM (inactive)
- GI50 (UACC-257): > 100 µM (inactive)

Structure (SMILES): O=C1c2ccccc2C(=O)N1n1c(Cc2ccc([N+](=O)[O-])cc2)n[nH]c1=O
- GI50 (SK-MEL-2): 75.2 µM (inactive)
- GI50 (NCI-H23): > 100 µM (inactive)
- GI50 (HCT-15): > 100 µM
- GI50 (OVCAR-3): > 100 µM (inactive)
- GI50 (MDA-MB-435): > 100 µM (inactive)
- GI50 (MOLT-4): > 100 µM (inactive)
- GI50 (IGROV-1): > 100 µM (inactive)
- GI50 (SF-295): > 100 µM (inactive)
- GI50 (SR): > 100 µM (inactive)
- GI50 (HCT-116): > 100 µM (inactive)
- GI50 (SK-MEL-28): > 100 µM (inactive)
- GI50 (NCI-H460): > 100 µM (inactive)
- GI50 (RXF 393): > 100 µM (inactive)
- GI50 (HOP-62): > 100 µM (inactive)
- GI50 (SW-620): > 100 µM (inactive)
- GI50 (NCI-H226): > 100 µM (inactive)
- GI50 (SF-539): > 100 µM (inactive)
- GI50 (A549): > 100 µM (inactive)
- GI50 (UACC-62): 36.3 µM (inactive)
- GI50 (ACHN): > 100 µM (inactive)
- GI50 (HOP-92): > 100 µM (inactive)
- GI50 (PC-3): > 100 µM (inactive)
- GI50 (TK-10): > 100 µM (inactive)
- GI50 (Malme-3M): > 100 µM (inactive)
- GI50 (SF-268): > 100 µM (inactive)
- GI50 (BT-549): > 100 µM (inactive)
- GI50 (MCF7): > 100 µM (inactive)
- GI50 (SK-MEL-5): > 100 µM (inactive)
- GI50 (SNB-19): > 100 µM (inactive)
- GI50 (RPMI-8226): > 100 µM (inactive)
- GI50 (CAKI-1): > 100 µM (inactive)
- GI50 (HCC 2998): > 100 µM (inactive)
- GI50 (KM12): > 100 µM (inactive)
- GI50 (DU-145): > 100 µM (inactive)
- GI50 (SNB-75): > 100 µM (inactive)
- GI50 (U-251): > 100 µM (inactive)
- GI50 (NCI/ADR-RES): > 100 µM (inactive)
- GI50 (NCI-H522): > 100 µM (inactive)
- GI50 (MDA-N): > 100 µM (inactive)
- GI50 (HT-29): > 100 µM (inactive)
- GI50 (A498): > 100 µM (inactive)
- GI50 (T47D): 23.3 µM (inactive)
- GI50 (OVCAR-5): > 100 µM (inactive)
- GI50 (786-0): > 100 µM (inactive)
- GI50 (SN12C): > 100 µM (inactive)
- GI50 (OVCAR-8): > 100 µM (inactive)
- GI50 (MDA-MB-231): > 100 µM (inactive)
- GI50 (K562): > 100 µM (inactive)
- GI50 (UO-31): > 100 µM (inactive)
- GI50 (UACC-257): > 100 µM (inactive)
